Patent US11485751B2, “Apramycin derivatives” (WAYNE STATE UNIVERSITY, priority 2017, dated 2022)
pIC50: −log10 of the molar value. ≈ marks a conversion by molar mass, not a printed value. Like-named read-outs stand apart in the source and are kept apart here.

Experiments:
[1] = system: WT clinical isolates; experiment: MIC broth microdilution, WT; assay type: cell-based; settings: read-out: MIC WT, clinical isolates, IMM Univ. Zurich; wild type
Procedure, shortened: (§1)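 Clinical isolates supplied by the Zurich Institute of Medical Microbiology were tested for MIC (μg/ml) using CLSI M07-A10 broth microdilution.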

[2] = system: clinical isolates carrying APH(3′)-III; experiment: MIC broth microdilution, APH(3′)-III; assay type: cell-based; settings: IMM Univ. Zurich
From the text: (§2) Minimal inhibitory concentrations (MIC) have been determined by broth microdilution assays (CLSI. Methods for Dilution Antimicrobial Susceptibility Tests for Bacteria That Grow Aerobically; Approved Standard—Tenth Edition. CLSI document M07-A10. Wayne, Pa.: Clinical and Laboratory Standards Institute; 2015.).
(§3) Minimal inhibitory concentrations (MICs, […]) against clinical isolates from Institute of Medical Microbiology, Univ. Zurich, and the IC50 values for bacterial, human mitochondrial and human cytosolic ribosomes are indicated.

[3] = system: A baum. AG227 APH(3′)-I armA; experiment: Activity against G1405-methylated 16S-rRNA, clinical isolate AG227; assay type: cell-based
From the text: as §2

[4] = system: AG031 P. aer. APH(3′)-II; experiment: Antibacterial activity, clinical isolate AG031; assay type: cell-based; design: unit not given here
Procedure, shortened: (§4)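 Susceptibility was tested per CLSI aerobic dilution protocol using microbroth format, with the MIC taken as the end point.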

[5] = system: SZ380, Mycobacterium smegmatis; experiment: MIC reference strain SZ380; assay type: cell-based; settings: Mycolicibacterium smegmatis, reference strain; read-out: MIC SZ380 M. smegmatis
Procedure, shortened: (§5)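 The method determines minimal inhibitory concentrations using the standard CLSI microdilution procedure in liquid medium.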

[6] = system: AG215, Klebsiella pneumonia; experiment: MIC reference strain AG215; assay type: cell-based; settings: Klebsiella pneumoniae, reference strain; read-out: MIC AG215 K. pneumonia
Procedure, shortened: as §5

[7] = system: clinical isolates carrying APH(3′)-I; experiment: MIC broth microdilution, APH(3′)-I; assay type: cell-based; settings: IMM Univ. Zurich
From the text: as §2, §3

[8] = system: Engineered E. coli pH430 WT; experiment: Activity, engineered E. coli pH430 WT; assay type: cell-based; settings: wild type
Procedure, shortened: (§6)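 Broth microdilution per CLSI M07-A10; readout MIC.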

[9] = system: bacterial ribosomes; experiment: in-vitro translation assay, bacterial ribosomes; assay type: biochemical
Procedure, shortened: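 Each ribosome preparation (bacterial, human chimeric as the mitochondrial model, rabbit reticulocyte as the cytosolic model) drives in-vitro translation with the test compound present. Inhibition of translation gives the IC50.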

[10] = system: AG001 E. coli WT; experiment: Antibacterial activity, clinical isolate AG001; assay type: cell-based; design: unit not given here
Procedure, shortened: as §4

[11] = system: K. pneum. AG269 AAC(3)-II AAC(6′)-I rmtB; experiment: Activity against G1405-methylated 16S-rRNA, clinical isolate AG269; assay type: cell-based
From the text: as §2

[12] = system: E. coli AG153 AAC(3)-II APH(3′)-II rmtB; experiment: Activity against G1405-methylated 16S-rRNA, clinical isolate AG153; assay type: cell-based
From the text: as §2

[13] = system: AG212, Escherichia coli ATCC25922; experiment: MIC reference strain AG212; assay type: cell-based; settings: Escherichia coli; reference strain ATCC25922; read-out: MIC AG212 E. coli
Procedure, shortened: as §5

[14] = system: AG225, Acinetobacter baumannii pittii; experiment: MIC reference strain AG225; assay type: cell-based; settings: Acinetobacter baumannii, reference strain; read-out: MIC AG225 A. baumannii
Procedure, shortened: as §5

[15] = system: clinical isolates carrying AAC(3)-IV; experiment: MIC broth microdilution, AAC(3)-IV; assay type: cell-based; settings: clinical isolates, IMM Univ. Zurich; AAC(3)-IV; read-out: MIC AAC(3)-IV
Procedure, shortened: as §1

[16] = system: clinical isolates carrying APH(3′)-VI; experiment: MIC broth microdilution, APH(3′)-VI; assay type: cell-based; settings: IMM Univ. Zurich
From the text: as §2, §3

[17] = system: clinical isolates carrying APH(3′)-II; experiment: MIC broth microdilution, APH(3′)-II; assay type: cell-based; settings: read-out: MIC APH(3′)-II
From the text: as §2, §3

[18] = system: Enterob. AG302 AAC(3)-II AAC(6′)-I rmtC; experiment: Activity against G1405-methylated 16S-rRNA, clinical isolate AG302; assay type: cell-based
From the text: as §2

[19] = system: human mitochondrial ribosomes; experiment: in-vitro translation assay, human mitochondrial (human chimeric) ribosomes; assay type: biochemical
Procedure, shortened: (§7)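 Cell-free translation; IC50 read-out. Mito = human chimeric ribosomes; cytosolic = rabbit reticulocyte ribosomes; bacterial ribosomes run in the same assay format.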

[20] = system: AG290, Enterobacter cloacae; experiment: MIC reference strain AG290; assay type: cell-based; settings: Enterobacter cloacae; reference strain; read-out: MIC AG290 E. cloacae
Procedure, shortened: as §5

[21] = system: AG220, Pseudomonas aeruginosa ATCC27853; experiment: MIC reference strain AG220; assay type: cell-based; settings: Pseudomonas aeruginosa, ATCC27853, reference strain ATCC27853; read-out: MIC AG220 P. aeruginosa
Procedure, shortened: as §5

[22] = system: ATCC19977 M. abcessus; experiment: MIC reference strain ATCC19977; assay type: cell-based; settings: read-out: MIC ATCC19977 M. abcessus
Procedure, shortened: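 Broth microdilution, CLSI dilution method for aerobic bacteria; read-out is minimal inhibitory concentration (MIC).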

[23] = system: AG038 MRSA; experiment: Antibacterial activity, clinical isolate AG038; assay type: cell-based; design: unit not given here
Procedure, shortened: as §4

[24] = system: human cytosolic ribosomes; experiment: in-vitro translation assay, human cytosolic ribosomes; assay type: biochemical
Procedure, shortened: as §7

[25] = system: Engineered E. coli pH424 armA; experiment: Activity against G1405-methylated 16S-rRNA, E. coli pH424 armA; assay type: cell-based
Procedure, shortened: as §6

[26] = system: AG173 E. coli AAC(3)-IV; experiment: Antibacterial activity, clinical isolate AG173; assay type: cell-based
Procedure, shortened: as §4

[27] = clinical isolates, IMM Univ. Zurich, APH(3′)-II

| Compound | MIC [1] [µg/mL] | MIC [2] [µg/mL] | Activity A baum. AG227 APH(3′)-I armA [3] | Antibacterial activity AG031 P. aer. APH(3′)-II [4] | MIC [5] [µg/mL] | MIC [6] [µg/mL] | MIC [7] [µg/mL] | Activity E. coli pH430 WT [8] | pIC50 [9] | Antibacterial activity AG001 E. coli WT [10] | Activity K. pneum. AG269 AAC(3)-II AAC(6′)-I rmtB [11] | Activity E. coli AG153 AAC(3)-II APH(3′)-II rmtB [12] | MIC [13] [µg/mL] | MIC [14] [µg/mL] | MIC [15] [µg/mL] | MIC [16] [µg/mL] | MIC [17, 27] [µg/mL] | Activity Enterob. AG302 AAC(3)-II AAC(6′)-I rmtC [18] | pIC50 [19] | pIC50 [24] | further results |
| --- | --- | --- | --- | --- | --- | --- | --- | --- | --- | --- | --- | --- | --- | --- | --- | --- | --- | --- | --- | --- | --- |
| CNC1C(O)C2O[C@H](O[C@@H]3C(N)C[C@@H](N)C(O)[C@H]3OC3O[C@H](CN)[C@@H](O)[C@H]3O)C(N)C[C@@H]2O[C@@H]1O[C@H]1OC(CO)[C@@H](N)[C@H](O)C1O (stereo partly shown) [DC201] | 8 (≈ 11.9 µM) | 1 (≈ 1.49 µM) | 8-16 | 16 | 0.25 | 2 | 2 to 4 (≈ 2.98 to 5.96 µM) | 8 | 6.92 | 4 | 4 | 8 | 4 | 4 to 8 | 16 (≈ 23.9 µM) | 4 (≈ 5.96 µM) | 4 (≈ 5.96 µM) | 4 | 3.95 | 4.09 | MIC [20]: 2 µg/mL; MIC [21]: 4 to 8 µg/mL; MIC [22]: 1 to 2 µg/mL (≈ 1.49 to 2.98 µM); Antibacterial activity AG038 MRSA [23]: 2-4; Activity E. coli pH424 armA [25]: 2 |
| CNC1C(O)C2O[C@H](O[C@@H]3C(N)C[C@@H](N)C(O)[C@H]3O[C@@H]3O[C@H](CNCCN)[C@@H](O)[C@H]3O)C(N)C[C@@H]2O[C@@H]1O[C@H]1OC(CO)[C@@H](N)[C@H](O)C1O (stereo partly shown) [DC214] |  | 1 (≈ 1.4 µM) | 4-8 | 8-16 | 0.25 | 1 | 2 (≈ 2.8 µM) | 4 | 7.05 | 2 | 2 | 2 | 2 | 8 | 8 to 16 (≈ 11.2 to 22.4 µM) | 4 (≈ 5.6 µM) | 4 (≈ 5.6 µM) | 1-2 | 3.75 | 4.07 | Antibacterial activity AG173 E. coli AAC(3)-IV [26]: 16; MIC [20]: 1 to 2 µg/mL; MIC [21]: 8 µg/mL; Antibacterial activity AG038 MRSA [23]: 4; Activity E. coli pH424 armA [25]: 2 |
| NC[C@@H]1O[C@H](O[C@H]2[C@@H](O)[C@H](O[C@@H]3[C@@H](O)[C@H](N)C[C@H](N)[C@H]3O[C@H]3O[C@H](CO)[C@@H](O)[C@H](O)[C@H]3N)O[C@@H]2CO)[C@H](N)[C@@H](O)[C@@H]1O [paromomycin, reference compound] | 1 to 2 (≈ 1.62 to 3.25 µM) | > 128 |  |  |  |  | > 128 |  | 7.70 |  |  |  |  |  | 128 (≈ 208 µM) | > 128 |  |  | 4.07 | 4.72 | MIC [17]: > 128 µg/mL |
